From ChEMBL document CHEMBL3603744, “Structure activity relationship of C-2 ether substituted 1,5-naphthyridine analogs of oxabicyclooctane-linked novel bacterial topoisomerase inhibitors as broad-spectrum antibacterial agents (Part-5)” (Bioorg Med Chem Lett, 2015)
In brackets after ≈: the same amount, converted by molar mass. Activity calls are given as the source filed them. How the calls were made is not given here.

Assays:
[1] = test system: Enterococcus faecium; experiment: Antimicrobial activity against vancomycin-resistant Enterococcus faecium VanA by micro broth dilution or agar based method; assay type: functional
[2] = test system: Streptococcus pneumoniae; experiment: Antimicrobial activity against Streptococcus pneumoniae IID553 by micro broth dilution or agar based method; assay type: functional
[3] = test system: Staphylococcus aureus; experiment: Antimicrobial activity against Staphylococcus aureus Smith by micro broth dilution or agar based method; assay type: functional
[4] = test system: Escherichia coli; experiment: Antimicrobial activity against Escherichia coli ATCC 25922 by micro broth dilution or agar based method; assay type: functional
[5] = test system: Pseudomonas aeruginosa; experiment: Antimicrobial activity against Pseudomonas aeruginosa PAO1 by micro broth dilution or agar based method; assay type: functional
[6] = test system: Staphylococcus aureus; experiment: Antimicrobial activity against methicillin-resistant Staphylococcus aureus OIT971 by micro broth dilution or agar based method; assay type: functional, organism-based
[7] = test system: Acinetobacter baumannii; experiment: Antimicrobial activity against Acinetobacter baumannii IID876 by micro broth dilution or agar based method; assay type: functional

NCC(O)COc1ccc2ncc(F)c(CCC34CCC(NCc5ccc6c(n5)NC(=O)CO6)(CC3)CO4)c2n1 (configuration not stated)
MIC [1]: 16 µg/mL (≈ 29 µM) | MIC [2]: 1 µg/mL (≈ 1.81 µM) | MIC [3]: 2 µg/mL (≈ 3.62 µM) | MIC [4]: 8 µg/mL (≈ 14.5 µM) | MIC [5]: 16 µg/mL (≈ 29 µM) | growth inhibition (GI) [6]: Active | MIC [7]: 32 µg/mL (≈ 57.9 µM)

N[C@H]1CO[C@H]1COc1ccc2ncc(F)c(CCC34CCC(NCc5ccc6c(n5)NC(=O)CO6)(CC3)CO4)c2n1
MIC [1]: 4 µg/mL (≈ 7.08 µM) | MIC [2]: 0.5 µg/mL (≈ 0.886 µM) | MIC [3]: 0.063 µg/mL (≈ 0.112 µM) | MIC [4]: 4 µg/mL (≈ 7.08 µM) | MIC [5]: 32 µg/mL (≈ 56.7 µM) | growth inhibition (GI) [6]: Active | MIC [7]: 1 µg/mL (≈ 1.77 µM)

O=C1COc2ccc(CNC34CCC(CCc5c(F)cnc6ccc(OC7CC(O)CC(O)C7)nc56)(CC3)OC4)nc2N1 (configuration not stated)
MIC [1]: 16 µg/mL (≈ 27 µM) | MIC [2]: 0.5 µg/mL (≈ 0.842 µM) | MIC [3]: 0.5 µg/mL (≈ 0.842 µM) | MIC [4]: 64 µg/mL (≈ 108 µM) | MIC [5]: 64 µg/mL (≈ 108 µM) | growth inhibition (GI) [6]: Active | MIC [7]: 32 µg/mL (≈ 53.9 µM)

COC(=O)C1(COc2ccc3ncc(F)c(CCC45CCC(NCc6ccc7c(n6)NC(=O)CO7)(CC4)CO5)c3n2)CC1
MIC [1]: 16 µg/mL (≈ 27 µM) | MIC [2]: 2 µg/mL (≈ 3.38 µM) | MIC [3]: 0.125 µg/mL (≈ 0.211 µM) | MIC [4]: 16 µg/mL (≈ 27 µM) | MIC [5]: 16 µg/mL (≈ 27 µM) | growth inhibition (GI) [6]: Active | MIC [7]: 8 µg/mL (≈ 13.5 µM)

O=C1COc2ccc(CNC34CCC(CCc5c(F)cnc6ccc(OCCC(F)(F)C(=O)O)nc56)(CC3)OC4)nc2N1
MIC [1]: 16 µg/mL (≈ 26.6 µM) | MIC [2]: 16 µg/mL (≈ 26.6 µM) | MIC [3]: 16 µg/mL (≈ 26.6 µM) | MIC [4]: 16 µg/mL (≈ 26.6 µM) | MIC [5]: 16 µg/mL (≈ 26.6 µM) | growth inhibition (GI) [6]: Active | MIC [7]: 16 µg/mL (≈ 26.6 µM)

N[C@@H]1C(=O)NC[C@H]1Oc1ccc2ncc(F)c(CCC34CCC(NCc5ccc6c(n5)NC(=O)CO6)(CC3)CO4)c2n1
MIC [1]: 16 µg/mL (≈ 27.7 µM) | MIC [2]: 16 µg/mL (≈ 27.7 µM) | MIC [3]: 16 µg/mL (≈ 27.7 µM) | MIC [4]: 16 µg/mL (≈ 27.7 µM) | MIC [5]: 16 µg/mL (≈ 27.7 µM) | growth inhibition (GI) [6]: Active | MIC [7]: 16 µg/mL (≈ 27.7 µM)

COCCOc1ccc2ncc(F)c(CCC34CCC(NCc5ccc6c(n5)NC(=O)CO6)(CC3)CO4)c2n1 [listing 1 of 2 here]
growth inhibition (GI) [6]: Active

O=C1COc2ccc(CNC34CCC(CCc5c(F)cnc6ccc(OCC7(C(=O)O)CC7)nc56)(CC3)OC4)nc2N1
MIC [1]: 16 µg/mL (≈ 27.7 µM) | MIC [2]: 2 µg/mL (≈ 3.46 µM) | MIC [3]: 0.5 µg/mL (≈ 0.866 µM) | MIC [4]: 16 µg/mL (≈ 27.7 µM) | MIC [5]: 16 µg/mL (≈ 27.7 µM) | growth inhibition (GI) [6]: Active | MIC [7]: 16 µg/mL (≈ 27.7 µM)

NCCCOc1ccc2ncc(F)c(CCC34CCC(NCc5ccc6c(n5)NC(=O)CO6)(CC3)CO4)c2n1 [listing 1 of 2 here]
MIC [1]: 4 µg/mL (≈ 7.45 µM) | MIC [2]: 0.5 µg/mL (≈ 0.932 µM) | MIC [3]: 0.25 µg/mL (≈ 0.466 µM) | MIC [4]: 2 µg/mL (≈ 3.73 µM) | MIC [5]: 8 µg/mL (≈ 14.9 µM) | MIC [7]: 2 µg/mL (≈ 3.73 µM)

NC1(COc2ccc3ncc(F)c(CCC45CCC(NCc6ccc7c(n6)NC(=O)CO7)(CC4)CO5)c3n2)CC1
MIC [1]: 8 µg/mL (≈ 14.6 µM) | MIC [2]: 1 µg/mL (≈ 1.82 µM) | MIC [3]: 0.25 µg/mL (≈ 0.456 µM) | MIC [4]: 2 µg/mL (≈ 3.65 µM) | MIC [5]: 16 µg/mL (≈ 29.2 µM) | growth inhibition (GI) [6]: Active | MIC [7]: 1 µg/mL (≈ 1.82 µM)

COc1ccc2ncc(F)c(C[C@H](O)C34CCC(NCc5ccc6c(n5)NC(=O)CO6)(CC3)CO4)c2n1 [listing 1 of 2 here]
growth inhibition (GI) [6]: Active

O=C1COc2ccc(CNC34CCC(CCc5c(F)cnc6ccc(OCC(CO)CO)nc56)(CC3)OC4)nc2N1
MIC [1]: 4 µg/mL (≈ 7.05 µM) | MIC [2]: 0.5 µg/mL (≈ 0.881 µM) | MIC [3]: 0.125 µg/mL (≈ 0.22 µM) | MIC [4]: 16 µg/mL (≈ 28.2 µM) | MIC [5]: 32 µg/mL (≈ 56.4 µM) | growth inhibition (GI) [6]: Active | MIC [7]: 8 µg/mL (≈ 14.1 µM)

NC1CC1COc1ccc2ncc(F)c(CCC34CCC(NCc5ccc6c(n5)NC(=O)CO6)(CC3)CO4)c2n1 (configuration not stated)
MIC [1]: 4 µg/mL (≈ 7.29 µM) | MIC [2]: 1 µg/mL (≈ 1.82 µM) | MIC [3]: 0.125 µg/mL (≈ 0.228 µM) | MIC [4]: 2 µg/mL (≈ 3.65 µM) | MIC [5]: 16 µg/mL (≈ 29.2 µM) | growth inhibition (GI) [6]: Active | MIC [7]: 0.25 µg/mL (≈ 0.456 µM)

O=C1COc2ccc(CNC34CCC(CCc5c(F)cnc6ccc(OC[C@H]7C[C@@H]7C(=O)O)nc56)(CC3)OC4)nc2N1
MIC [1]: 4 µg/mL (≈ 6.93 µM) | MIC [2]: 0.25 µg/mL (≈ 0.433 µM) | MIC [3]: 0.25 µg/mL (≈ 0.433 µM) | MIC [4]: 16 µg/mL (≈ 27.7 µM) | MIC [5]: 16 µg/mL (≈ 27.7 µM) | growth inhibition (GI) [6]: Active | MIC [7]: 16 µg/mL (≈ 27.7 µM)

O=C1COc2ccc(CNC34CCC(CCc5c(F)cnc6ccc(OCC(F)(F)F)nc56)(CC3)OC4)nc2N1
MIC [1]: 4 µg/mL (≈ 7.12 µM) | MIC [2]: 1 µg/mL (≈ 1.78 µM) | MIC [3]: 0.063 µg/mL (≈ 0.112 µM) | MIC [4]: 16 µg/mL (≈ 28.5 µM) | MIC [5]: 16 µg/mL (≈ 28.5 µM) | growth inhibition (GI) [6]: Active | MIC [7]: 8 µg/mL (≈ 14.2 µM)

COCCOc1ccc2ncc(F)c(CCC34CCC(NCc5ccc6c(n5)NC(=O)CO6)(CC3)CO4)c2n1 [listing 2 of 2 here]
MIC [1]: 4 µg/mL (≈ 7.44 µM) | MIC [2]: 1 µg/mL (≈ 1.86 µM) | MIC [3]: 0.063 µg/mL (≈ 0.117 µM) | MIC [4]: 8 µg/mL (≈ 14.9 µM) | MIC [5]: 16 µg/mL (≈ 29.8 µM) | MIC [7]: 4 µg/mL (≈ 7.44 µM)

O=C1COc2ccc(CNC34CCC(CCc5c(F)cnc6ccc(OCCO)nc56)(CC3)OC4)nc2N1
MIC [1]: 1 µg/mL (≈ 1.91 µM) | MIC [2]: 0.25 µg/mL (≈ 0.477 µM) | MIC [3]: 0.031 µg/mL (≈ 0.0592 µM) | MIC [4]: 4 µg/mL (≈ 7.64 µM) | MIC [5]: 8 µg/mL (≈ 15.3 µM) | MIC [7]: 1 µg/mL (≈ 1.91 µM)

O=C1COc2ccc(CNC34CCC(CCc5c(F)cnc6ccc(OCCCO)nc56)(CC3)OC4)nc2N1
MIC [1]: 1 µg/mL (≈ 1.86 µM) | MIC [2]: 0.25 µg/mL (≈ 0.465 µM) | MIC [3]: 0.016 µg/mL (≈ 0.0298 µM) | MIC [4]: 4 µg/mL (≈ 7.44 µM) | MIC [5]: 16 µg/mL (≈ 29.8 µM) | MIC [7]: 2 µg/mL (≈ 3.72 µM)

NCCCOc1ccc2ncc(F)c(CCC34CCC(NCc5ccc6c(n5)NC(=O)CO6)(CC3)CO4)c2n1 [listing 2 of 2 here]
growth inhibition (GI) [6]: Active

COc1ccc2ncc(F)c(C[C@H](O)C34CCC(NCc5ccc6c(n5)NC(=O)CO6)(CC3)CO4)c2n1 [listing 2 of 2 here]
MIC [1]: 0.5 µg/mL (≈ 0.981 µM) | MIC [2]: 0.05 µg/mL (≈ 0.0981 µM) | MIC [3]: 0.02 µg/mL (≈ 0.0393 µM) | MIC [4]: 2 µg/mL (≈ 3.93 µM) | MIC [5]: 8 µg/mL (≈ 15.7 µM) | MIC [7]: 0.5 µg/mL (≈ 0.981 µM)
